Data: publication PMC8704389, “New Insights into the Hypotensins from Tityus serrulatus Venom: Pro-Inflammatory and Vasopeptidases Modulation Activities” (Toxins, 2021)
Values joined by “and” are separate entries in the source; they are usually repeats but may differ in a detail not shown here. Equal entries are not always repeated. No end group written: not given here.

What was measured:
[1] = test system: murine peritoneal macrophages; test: Phagocytic activity of murine peritoneal macrophages (Saccharomyces cerevisiae); assay type: cell-based, BALB/c mice; conditions: 100 µg/mL, 24 h, then 1 h with Saccharomyces cerevisiae; duplicate; versus negative control
Protocol: Figure 5 Phagocytic activity of the murine peritoneal macrophages stimulated in vitro with TsHpt-I and -II. Peritoneal exudate macrophages from naïve BALB/c mice were cultured on glass coverslips for 24 h in culture medium or in the presence of LPS (5 μg/mL) or TsHpt-I and -II (100 μg/mL). After this period, the cells were incubated for 1 h with a suspension of Saccharomyces cerevisiae. Coverslips were washed, fixed and stained by Giemsa. (A) Phagocytosis images in 400× magnification. (B) The phagocytic index was calculated based on the percentage of phagocytic cells and on the average number of yeasts per cell, by counting approximately 200 cells per coverslip in 1000× magnification. The results represent one of two reproducible experiments performed in duplicate (mean ± SD). * p < 0.05.
Peritoneal macrophages from naïve BALB/c mice (n = 6) were obtained as described above (item 5.5.1). Cells were distributed in 24-well culture plates (5 × 10^5 cells/500 µL/well), with glass coverslips inside, and incubated for 2 h at 37 °C and 5% CO2. […] Phagocytosis was evaluated by immersion optical microscopy (1000×) and quantified by counting approximately 200 cells per cover slip. The percentage of phagocytic cells and the average number of internalized yeasts per phagocytic cell were calculated. […]

ACE = target: T1, ACE (Oryctolagus cuniculus, UniProt P12822); test: Modulation of ACE activity, FRET substrate Abz-FRK(Dnp)P-OH; assay type: biochemical, rabbit; conditions: 10 µM peptide, 3.0 ng ACE, 10 µM Abz-FRK(Dnp)P-OH, Tris HCl 100 mM, NaCl 50 mM, ZnCl2 10 µM, pH 7.0, 37 °C, 15 min, fluorescence 320/420 nm, triplicate
T1 construct: Angiotensin Converting Enzyme (ACE) from rabbit lung; purchased Sigma-Aldrich; host or cells: rabbit lung tissue
T1 sequence (P12822 34-1310): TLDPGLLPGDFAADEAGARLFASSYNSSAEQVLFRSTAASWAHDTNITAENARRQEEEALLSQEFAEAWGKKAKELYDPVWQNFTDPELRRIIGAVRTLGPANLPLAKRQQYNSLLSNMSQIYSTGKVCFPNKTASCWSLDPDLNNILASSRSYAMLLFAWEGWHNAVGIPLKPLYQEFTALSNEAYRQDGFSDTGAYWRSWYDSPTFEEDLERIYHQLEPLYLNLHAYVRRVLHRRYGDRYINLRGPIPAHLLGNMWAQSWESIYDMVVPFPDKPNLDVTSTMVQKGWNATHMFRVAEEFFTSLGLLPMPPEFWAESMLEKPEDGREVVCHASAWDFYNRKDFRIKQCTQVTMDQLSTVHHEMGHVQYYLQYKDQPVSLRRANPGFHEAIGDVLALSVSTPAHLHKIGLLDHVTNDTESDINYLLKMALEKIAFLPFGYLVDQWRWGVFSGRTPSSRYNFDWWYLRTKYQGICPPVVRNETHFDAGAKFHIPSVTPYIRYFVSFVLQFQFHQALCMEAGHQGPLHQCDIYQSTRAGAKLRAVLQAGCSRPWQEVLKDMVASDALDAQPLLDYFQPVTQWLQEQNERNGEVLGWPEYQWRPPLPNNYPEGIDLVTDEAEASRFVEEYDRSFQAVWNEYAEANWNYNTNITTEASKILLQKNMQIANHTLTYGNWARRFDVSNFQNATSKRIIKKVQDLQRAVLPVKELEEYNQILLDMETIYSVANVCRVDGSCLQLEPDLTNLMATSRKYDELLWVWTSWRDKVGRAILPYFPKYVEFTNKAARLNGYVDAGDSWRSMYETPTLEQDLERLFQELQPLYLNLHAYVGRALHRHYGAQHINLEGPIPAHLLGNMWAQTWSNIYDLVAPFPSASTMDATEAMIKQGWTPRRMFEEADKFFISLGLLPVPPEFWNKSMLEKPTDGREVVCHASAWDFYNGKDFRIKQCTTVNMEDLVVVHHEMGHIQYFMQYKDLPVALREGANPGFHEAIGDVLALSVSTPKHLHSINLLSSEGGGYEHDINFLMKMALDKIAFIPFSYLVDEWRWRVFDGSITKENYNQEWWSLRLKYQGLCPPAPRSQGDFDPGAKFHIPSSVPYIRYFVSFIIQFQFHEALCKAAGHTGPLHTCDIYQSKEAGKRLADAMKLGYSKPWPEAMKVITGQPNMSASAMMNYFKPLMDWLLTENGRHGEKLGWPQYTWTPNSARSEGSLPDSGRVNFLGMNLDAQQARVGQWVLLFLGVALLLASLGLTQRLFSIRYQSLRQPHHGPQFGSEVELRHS
Protocol: The results were obtained by incubating the enzymes with their FRET substrates (10 µM) in a final volume of 100 µL. For the ACE assays, the used buffer was Tris HCl 100 mM, NaCl 50 mM and ZnCl2 10 µM, pH 7.0. For NEP, the assays were made in Tris HCl 50 mM, pH 7.5 buffer. All reactions occurred at 37 °C, in a Victor 3 fluorimeter (Perkin–Elmer) adjusted for excitation and emission readings at 320 and 420 nm, respectively, for 15 min (one reader per minute). Results were obtained in triplicate and analyzed on GraFit 5 software.
For ACE assays, 10 µM of each peptide was incubated with 3.0 ng of peptidase and 10 µM of Abz-FRK (Dnp) P-OH substrate, in Tris HCl 100 mM, NaCl 50 mM and ZnCl2 10 µM, pH 7.0 buffer. For NEP, 10 µM of TsHpt-I or -II was incubated with 1.5 ng of peptidase, 3.5 µM Abz-RGFK (Dnp)-OH in Tris HCl 50 mM, pH 7.5 buffer. All reactions occurred at 37 °C, in a final volume of 100 µL, in a Victor 3 fluorimeter (Perkin–Elmer, Waltham, MA, USA) adjusted for excitation and emission readings at 320 and 420 nm, respectively, for 15 min (one reader per minute). Results were obtained in triplicate and analyzed using GraFit 5 (Erithacus software, East Grinstead, West Sussex, UK).

Row | Sequence | phagocytic index [1] | ACE Activation (%) (ACE)
1 | AEIDFSGIPEDIIKEIKETNAKPPA [TsHpt-II] | significant increase in the phagocytic index | 46% and 44%
2 | AEIDFSGIPEDIIKQIKETNAKPPA [TsHpt-I] | significant increase in the phagocytic index | 64%
